From patent US11304957B2, “Substituted quinazolines for inhibiting kinase activity” (NeuPharma, Inc., priority 2013, dated 2022)

Key:
[1] = target: EGFR (ErbB1) T790M L858R (Homo sapiens (Human), UniProt P00533, L858R/T790M); assay: Z'-LYTE kinase inhibition assay, EGFR L858R/T790M; assay type: biochemical; conditions: for inhibition at 0.0137 µM: read-out: % inhibition EGFR L858R/T790M (Compound at 0.0137 μM)
Protocol: Inhibitory activities of compounds against BTK, EGFR and EGFR mutants (EGFR L858R, EGFR T790M, EGFR L858R/T790M), FGFR1, FGFR2, JAK2, JAK3 and KDR were measured by Invitrogen using Z'-LYTE® Method as briefly described in the following. Test Compounds are screened in 1% DMSO (final) in the well. For 10 point titrations, 3-fold serial dilutions are conducted from the starting concentration. All ATP Solutions are diluted to a 4× working concentration in Kinase Buffer (50 mM HEPES pH 7.5, 0.01% BRIJ-35, 10 mM MgCl2, 1 mM EGTA). Peptide/Kinase Mixtures are diluted to a 2× working concentration in the appropriate Kinase Buffers as described below. (iv) Peptide/Kinase Mixtures for Measurement of EGFR (ErbB1) T790M L858R: The 2×EGFR (ErbB1) […] mixture is prepared in 50 mM HEPES pH 6.5, 0.01% BRIJ-35, 10 mM MgCl2, 1 mM EGTA, 0.02% NaN3. […] After the 1 hour Kinase Reaction incubation, 5 μL of a 1:64 dilution of Development Reagent B is added. Reaction starts by 30-second shaking of mixture consisting of 2.5 μL 4× test compound, 5 μL 2× kinase reaction mixture and 2.5 μL 4×ATP Solution on Bar-coded Corning, low volume NBS, black 384-well plate (Corning Cat. #3676). Then the mixture is incubated for 60-minute at room temperature for the kinase reaction, followed by addition of 5 μL of a 1:1024 dilution of development reagent A and 30-second plate shake. The mixture is then incubated for another 60-minute at room temperature for development reaction. Finally fluorescence is read by plate reader. To determine IC50 of a compound against EGFR, EGFR mutant and other kinases, a series of concentrations of the compound were tested for the inhibition.

[2] = system: H1975 tumor xenograft; assay: Inhibition of tumor growth in H1975 xenograft model; assay type: in vivo, BALB/c female nude mice; conditions: Table 7, 60 mg/kg, oral, QD × 14; for Tumor Volume Pre-treatment: baseline
Protocol: H1975 cells were implanted in BALB/c female nude mice and grown as tumor xenografts. When tumors achieved 120-200 mm^3, mice were assigned into treatment and control groups using randomized block design based upon their tumor volumes. Each group contained 6 tumor-bearing mice. Tumors were measured twice weekly in two dimensions using a caliper, and the tumor volume was calculated from two-dimensional measurements using the equation V=0.5×a×b^2 where a and b are the long and short diameters of the tumor, respectively. Relative tumor volume (RTV) was defined as TVt/TVi, the ratio of the volume on a given day (TVt) and the volume at the start of treatment (TVi). Relative tumor growth rate (T/C) was defined as RTVT/RTVC, the ratio of relative tumor volume of treatment group (RTVT) and relative tumor volume of control group (RTVC) on a given day. Inhibition of tumor growth in a H1975 tumor xenograft model by some compounds is shown below in Table 6 and Table 7.

[3] = target: EGFR (ErbB1) (Homo sapiens (Human), UniProt P00533); assay: Z'-LYTE kinase inhibition assay, EGFR (ErbB1); assay type: biochemical
EGFR (ErbB1), sequence (P00533 25-1210): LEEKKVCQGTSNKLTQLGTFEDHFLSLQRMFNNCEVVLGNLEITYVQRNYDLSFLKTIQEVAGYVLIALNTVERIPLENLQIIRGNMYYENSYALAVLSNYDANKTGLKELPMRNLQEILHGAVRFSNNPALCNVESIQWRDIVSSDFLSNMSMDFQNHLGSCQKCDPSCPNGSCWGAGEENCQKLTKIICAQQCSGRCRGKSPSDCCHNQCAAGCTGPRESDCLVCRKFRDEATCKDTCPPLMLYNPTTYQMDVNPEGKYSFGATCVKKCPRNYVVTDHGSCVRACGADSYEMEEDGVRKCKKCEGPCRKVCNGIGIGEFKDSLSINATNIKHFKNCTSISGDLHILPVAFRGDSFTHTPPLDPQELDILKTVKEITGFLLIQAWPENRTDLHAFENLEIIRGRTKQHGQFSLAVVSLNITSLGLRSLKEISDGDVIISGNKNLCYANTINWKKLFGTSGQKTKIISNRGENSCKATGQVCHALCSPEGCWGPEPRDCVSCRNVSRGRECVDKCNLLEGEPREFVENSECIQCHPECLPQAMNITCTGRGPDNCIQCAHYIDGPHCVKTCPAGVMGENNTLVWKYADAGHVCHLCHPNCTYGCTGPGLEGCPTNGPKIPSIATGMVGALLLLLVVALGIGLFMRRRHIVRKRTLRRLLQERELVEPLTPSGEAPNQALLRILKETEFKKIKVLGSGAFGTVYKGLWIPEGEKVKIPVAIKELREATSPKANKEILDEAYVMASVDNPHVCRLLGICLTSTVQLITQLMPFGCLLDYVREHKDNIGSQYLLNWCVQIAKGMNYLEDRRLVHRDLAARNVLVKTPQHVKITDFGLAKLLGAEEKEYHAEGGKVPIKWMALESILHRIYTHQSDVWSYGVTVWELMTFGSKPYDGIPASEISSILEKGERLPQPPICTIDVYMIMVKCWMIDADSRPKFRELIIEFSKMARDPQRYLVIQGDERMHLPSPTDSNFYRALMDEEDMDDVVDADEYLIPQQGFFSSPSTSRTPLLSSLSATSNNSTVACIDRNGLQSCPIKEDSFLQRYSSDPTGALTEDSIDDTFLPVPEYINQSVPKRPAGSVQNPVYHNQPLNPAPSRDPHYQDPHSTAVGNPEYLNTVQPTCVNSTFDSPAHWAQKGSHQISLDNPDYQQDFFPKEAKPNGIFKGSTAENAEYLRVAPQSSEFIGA
Protocol: Inhibitory activities of compounds against BTK, EGFR and EGFR mutants (EGFR L858R, EGFR T790M, EGFR L858R/T790M), FGFR1, FGFR2, JAK2, JAK3 and KDR were measured by Invitrogen using Z'-LYTE® Method as briefly described in the following. Test Compounds are screened in 1% DMSO (final) in the well. For 10 point titrations, 3-fold serial dilutions are conducted from the starting concentration. All ATP Solutions are diluted to a 4× working concentration in Kinase Buffer (50 mM HEPES pH 7.5, 0.01% BRIJ-35, 10 mM MgCl2, 1 mM EGTA). Peptide/Kinase Mixtures are diluted to a 2× working concentration in the appropriate Kinase Buffers as described below. (i) Peptide/Kinase Mixtures for Measurement of EGFR (ErbB1): The 2×EGFR (ErbB1)/[…] mixture is prepared in 50 mM HEPES pH 7.5, 0.01% BRIJ-35, 10 mM MgCl2, 4 mM MnCl2, 1 mM EGTA, 2 mM DTT. The final 10 μL Kinase Reaction consists of 1.1-5.25 ng EGFR (ErbB1) and 2 μM […] in 50 mM HEPES pH 7.5, 0.01% BRIJ-35, 10 mM MgCl2, 2 mM MnCl2, 1 mM EGTA, 1 mM DTT. After the 1 hour Kinase Reaction incubation, 5 μL of a 1:64 dilution of Development Reagent B is added. Reaction starts by 30-second shaking of mixture consisting of 2.5 μL 4× test compound, 5 μL 2× kinase reaction mixture and 2.5 μL 4×ATP Solution on Bar-coded Corning, low volume NBS, black 384-well plate (Corning Cat. #3676). […] Finally fluorescence is read by plate reader. […]

[4] = system: H1975 cells; assay: Inhibition of cancer cell growth, MTT assay, H1975; conditions: read-out: IC50 H1975, 72 h, EGFR L858R/T790M
Protocol: Inhibition of cell growth by compounds was measured using MTT assay (Mosmann, T., Journal of Immunological Methods, 1983, 65, 55-63). Tumor cell lines were purchased from ATCC (American Type Culture Collection, Manassas, Va.). All cell lines were maintained in RPMI 1640 (Hyclone) supplemented with 10% fetal bovine serum (FBS, Hyclone), glutamine (2 mM, Hyclone), and antibiotics (penicillin 100 U/mL and streptomycin 50 μg/mL) at 37° C. in a humidified atmosphere of 5% CO2 in air. Taxol (as a positive control, Sigma) and compounds were dissolved in DMSO (Sigma), and the final concentration of DMSO in the medium was 1%. Tumor cells were plated in 96-well plates at densities of about 4000 cells/well of a 96-well plate and allowed to adhere/grow for 24 h. They were then treated with various concentrations of drug for 72 h. […] The number of cells remaining after 72 h was compared to the number of viable cells at the time of compound addition by measuring the absorbance at 570 nm, allowing for the calculation of growth inhibition.
All concentrations of compounds were tested in triplicate and controls were averaged over 4 wells. IC50 was calculated by plotting the concentration of compound vs the percentage of inhibition in treated wells using GraphPad Prism 5. […]

EGFR (ErbB1) T790M L858R, sequence (P00533 25-1210 T790M/L858R): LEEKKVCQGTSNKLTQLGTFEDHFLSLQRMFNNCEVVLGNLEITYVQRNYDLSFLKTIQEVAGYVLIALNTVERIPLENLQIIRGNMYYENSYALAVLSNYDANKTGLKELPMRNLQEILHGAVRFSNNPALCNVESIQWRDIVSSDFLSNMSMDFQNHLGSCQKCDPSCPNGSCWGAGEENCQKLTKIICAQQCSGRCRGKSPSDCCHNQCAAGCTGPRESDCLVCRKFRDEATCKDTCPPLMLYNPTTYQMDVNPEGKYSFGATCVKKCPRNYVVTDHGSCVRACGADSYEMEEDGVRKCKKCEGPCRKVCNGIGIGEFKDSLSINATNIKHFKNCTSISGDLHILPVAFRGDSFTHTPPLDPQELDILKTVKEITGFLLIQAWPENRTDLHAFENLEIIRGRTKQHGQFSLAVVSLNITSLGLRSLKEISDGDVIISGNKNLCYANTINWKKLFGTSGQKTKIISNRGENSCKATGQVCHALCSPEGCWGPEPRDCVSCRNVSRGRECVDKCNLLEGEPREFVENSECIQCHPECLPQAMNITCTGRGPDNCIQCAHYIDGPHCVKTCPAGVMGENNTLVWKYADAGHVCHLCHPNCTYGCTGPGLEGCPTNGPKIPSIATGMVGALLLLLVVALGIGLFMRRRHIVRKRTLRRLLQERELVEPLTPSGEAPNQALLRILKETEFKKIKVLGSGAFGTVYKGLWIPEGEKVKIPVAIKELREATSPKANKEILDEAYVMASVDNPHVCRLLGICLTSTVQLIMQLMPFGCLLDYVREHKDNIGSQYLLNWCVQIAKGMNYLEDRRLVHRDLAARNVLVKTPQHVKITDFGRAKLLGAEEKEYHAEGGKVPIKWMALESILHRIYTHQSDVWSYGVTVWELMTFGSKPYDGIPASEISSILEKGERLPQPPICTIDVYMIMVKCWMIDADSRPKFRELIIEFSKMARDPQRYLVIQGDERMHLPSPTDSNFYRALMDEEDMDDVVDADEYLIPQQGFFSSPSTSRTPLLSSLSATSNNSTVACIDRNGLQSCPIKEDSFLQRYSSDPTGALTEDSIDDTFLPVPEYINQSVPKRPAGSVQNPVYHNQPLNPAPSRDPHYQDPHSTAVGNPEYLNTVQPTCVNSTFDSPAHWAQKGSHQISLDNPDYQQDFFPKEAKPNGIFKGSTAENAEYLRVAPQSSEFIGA

% inhibition EGFR (Compound at 0.041 μM) [3]	% inhibition EGFR L858R/T790M (Compound at 0.0137 μM) [1]	IC50 [4]	SMILES	inhibition at 0.0137 µM [1]	Tumor Volume Post-treatment [2]	Tumor Volume Pre-treatment [2]
–	–	–	C=CC(=O)Nc1cccc(-c2cccc3cnc(Nc4ccc(N5CCN(CCO)CC5)cc4F)nc23)c1 [Example C147, N-(3-(2-((2-fluoro-4-(4-(2-hydroxyethyl)piperazin-1-yl)phenyl)amino)quinazolin-8-yl)phenyl)acrylamide]	> 50%	898 mm^3	240 mm^3
–	–	–	C=CC(=O)Nc1cccc(-c2cccc3cnc(Nc4ccc(N5CCN(CCO)CC5)c(F)c4F)nc23)c1 [Example C151, N-(3-(2-((2,3-difluoro-4-(4-(2-hydroxyethyl)piperazin-1-yl)phenyl)amino)quinazolin-8-yl)phenyl)acrylamide]	> 50%	462 mm^3	229 mm^3
+ (less than 50% inhibition)	+ (less than 50% inhibition)	100 to 500 nM	C=CC(=O)Nc1cccc(-c2cccc3cnc(Nc4ccc(N5CCN(CC(N)=O)CC5)cc4F)nc23)c1 [Example C154]	–	–	–
–	–	–	C=CC(=O)Nc1cccc(-c2cccc3cnc(Nc4ccc(N5CCN(C)CC5)c(F)c4F)nc23)c1 [Example C156, N-(3-(2-((2,3-difluoro-4-(4-methylpiperazin-1-yl)phenyl)amino)quinazolin-8-yl)phenyl)acrylamide]	–	594 mm^3	232 mm^3
+ (less than 50% inhibition)	+ (less than 50% inhibition)	100 to 500 nM	C=CC(=O)Nc1cccc(-c2cccc3cnc(Nc4ccc(N5CCN(CC(N)=O)CC5)c(F)c4)nc23)c1 [Example C164]	–	–	–
